Assay results published in ChEMBL document CHEMBL3392982, “Synthesis and membrane-protective activity of novel derivatives of α-mangostin at the C-4 position” (Bioorg Med Chem Lett, 2015).
Activity calls are given as the source filed them. The calls are words filed in the database; no cut-off is given here.

Columns and labels:
[1] = Toxicity in mouse erythrocytes assessed as induction of hemolysis at 10 and 30 uM incubated for 5 hrs; assay type: cell-based; conditions: erythrocyte
Erythrocyte [2] = assay: Membrane-protective activity in mouse erythrocytes assessed as inhibition of H2O2-induced hemolysis pre-incubated for 30 mins before H2O2 injection and measured 5 hrs post H2O2 injection; assay type: functional, cell-based
[3] = Toxicity in H2O2-induced mouse erythrocytes assessed as induction of hemolysis at 30 uM pre-incubated for 30 mins before H2O2 injection and measured 5 hrs post H2O2 injection; assay type: cell-based; conditions: erythrocyte
Erythrocyte [4] = assay: Antioxidant activity in mouse erythrocytes assessed as inhibition of H2O2-induced secondary lipid peroxidation at 1 to 30 uM pre-incubated for 30 mins before H2O2 injection and measured 4 hrs post H2O2 injection by TBARS detection based spectrophotometry; assay type: functional, cell-based
Erythrocyte [5] = assay: Inhibition of H2O2-induced oxyhemoglobin oxidation in mouse erythrocytes assessed as metHb/oxyHb ratio level at 1 uM pre-incubated for 30 mins before H2O2 injection and measured 5 hrs post H2O2 injection; assay type: functional; set-up: scale not given: the % may be the effect or the level left
Erythrocyte [6] = assay: Inhibition of H2O2-induced oxyhemoglobin oxidation in mouse erythrocytes assessed as metHb/oxyHb ratio level at 10 uM pre-incubated for 30 mins before H2O2 injection and measured 5 hrs post H2O2 injection; assay type: functional; set-up: scale not given: the % may be the effect or the level left
Erythrocyte [7] = assay: Inhibition of H2O2-induced oxyhemoglobin oxidation in mouse erythrocytes assessed as metHb/oxyHb ratio level at 30 uM pre-incubated for 30 mins before H2O2 injection and measured 5 hrs post H2O2 injection; assay type: functional; set-up: scale not given: the % may be the effect or the level left
Erythrocyte [8] = assay: Inhibition of H2O2-induced oxyhemoglobin oxidation in mouse erythrocytes assessed as ferrylHb/oxyHb ratio level at 1 uM pre-incubated for 30 mins before H2O2 injection and measured 5 hrs post H2O2 injection; assay type: functional; set-up: scale not given: the % may be the effect or the level left
Erythrocyte [9] = assay: Inhibition of H2O2-induced oxyhemoglobin oxidation in mouse erythrocytes assessed as ferrylHb/oxyHb ratio level at 10 uM pre-incubated for 30 mins before H2O2 injection and measured 5 hrs post H2O2 injection; assay type: functional; set-up: scale not given: the % may be the effect or the level left
Erythrocyte [10] = assay: Inhibition of H2O2-induced oxyhemoglobin oxidation in mouse erythrocytes assessed as ferrylHb/oxyHb ratio level at 30 uM pre-incubated for 30 mins before H2O2 injection and measured 5 hrs post H2O2 injection; assay type: functional; set-up: scale not given: the % may be the effect or the level left
Erythrocyte [11] = assay: Membrane-protective activity in mouse erythrocytes assessed as inhibition of H2O2-induced hemolysis at 10 to 30 uM pre-incubated for 30 mins before H2O2 injection and measured 5 hrs post H2O2 injection; assay type: functional, cell-based
Erythrocyte [12] = assay: Membrane-protective activity in mouse erythrocytes assessed as inhibition of H2O2-induced hemolysis at 30 uM pre-incubated for 30 mins before H2O2 injection and measured 5 hrs post H2O2 injection; assay type: functional, cell-based
[13] = Toxicity in rabbit erythrocytes assessed as induction of cell death at 7.8 to 15.6 uM within 1 hr; assay type: cell-based, Oryctolagus cuniculus, Erythrocyte; conditions: read-out: Activity
[14] = Toxicity in rabbit erythrocytes assessed as induction of hemolysis at 10 uM within 1 hr; assay type: cell-based, Oryctolagus cuniculus, Erythrocyte; conditions: read-out: Activity
Erythrocyte [15] = assay: Membrane-protective activity in mouse erythrocytes assessed as inhibition of H2O2-induced hemolysis at 1 uM pre-incubated for 30 mins before H2O2 injection and measured 5 hrs post H2O2 injection; assay type: functional, cell-based

Compound	Activity [1]	Activity (Erythrocyte [2])	Activity [3]	Activity (Erythrocyte [4])	Activity (Erythrocyte [5]) [%]	Activity (Erythrocyte [6]) [%]	Activity (Erythrocyte [7]) [%]	Activity (Erythrocyte [8]) [%]	Activity (Erythrocyte [9]) [%]	Activity (Erythrocyte [10]) [%]	Activity (Erythrocyte [11])	Activity (Erythrocyte [12])	hemolysis at 1 h, up to 15.6 µM [13] [%]	hemolysis at 1 h, 10 µM [14] [%]	Activity (Erythrocyte [15])
COc1c(O)cc2oc3c(CN(C)C)c(O)c(CC=C(C)C)c(O)c3c(=O)c2c1CC=C(C)C	Non-toxic	Dose-dependent effect	Toxic	Active	65.8	37.5	196.4	67.4	35.5	162.3	–	–	–	–	–
COc1c(O)cc2oc3c(CN4CCOCC4)c(O)c(CC=C(C)C)c(O)c3c(=O)c2c1CC=C(C)C	Non-toxic	–	–	Active	112.5	42.7	27.9	91.8	37.1	25.2	Active	–	–	–	–
COc1c(O)cc2oc3c(Cc4cc(C(C)(C)C)c(O)c(C(C)(C)C)c4)c(O)c(CC=C(C)C)c(O)c3c(=O)c2c1CC=C(C)C	Non-toxic	–	–	Active	98.4	63.8	35.5	81	53.3	22.5	–	Active	–	–	–
COc1c(O)cc2oc3cc(O)c(CC=C(C)C)c(O)c3c(=O)c2c1CC=C(C)C [MANGOSTIN]	Toxic	Dose-dependent effect	Toxic	Active	44.7	45.5	–	55.3	39.5	–	–	–	10.5	10.1	–
COc1c(O)cc2oc3c(CN4CCCCC4)c(O)c(CC=C(C)C)c(O)c3c(=O)c2c1CC=C(C)C	Non-toxic	–	–	Active	56.9	40.7	24	58	32.3	18.5	Active	–	–	–	–
COc1c(O)cc2oc3c(Cc4cc([C@H]5C[C@@H]6CC[C@@]5(C)C6(C)C)c(O)c([C@@H]5C[C@H]6CC[C@]5(C)C6(C)C)c4)c(O)c(CC=C(C)C)c(O)c3c(=O)c2c1CC=C(C)C	Non-toxic	–	–	Active	60.1	77.3	105.6	61.5	70.9	64.2	–	–	–	–	Active
